Reference: article PMC3389674, “Comparison of Soluble Guanylate Cyclase Stimulators and Activators in Models of Cardiovascular Disease Associated with Oxidative Stress” (Frontiers in Pharmacology, 2012)
Read-outs that look alike come from different tables or passages of the source. One block for each compound: values may come before it.

Columns and labels:
rat hearts = system: rat hearts; design: method as in Krieg et al., 2009; settings: administered 5 min prior to reperfusion following 30 min regional ischemia; ref Krieg et al., 2009; cited from earlier work
dogs = system: dogs; design: method as in Korkmaz et al., 2009; settings: administered 5 min prior to reperfusion following 60 min global cardiac ischemia; ref Korkmaz et al., 2009; cited from earlier work
rabbit hearts = system: rabbit hearts; design: method as in Krieg et al., 2009; Cohen et al., 2010; settings: administered 5 min prior to reperfusion following 30 min regional ischemia; ref Krieg et al., 2009; Cohen et al., 2010; cited from earlier work
SHR-SP isolated aorta = experiment: vasoactivity of SHR-SP isolated aorta (ND, HSFD and after chronic treatment); design: species or system rat; settings: for EC50: Rattus norvegicus
Experimental: In separate studies, endothelial function was assessed following chronic (7 week) BAY 60-4552 or GSK2181236A treatment in SHR-SP on HSFD. SHR-SP fed either normal or HSFD served as controls. Rats were anesthetized and thoracic aorta were isolated and treated with KCl and phenylephrine as described above. Cumulative concentration-response curves to phenylephrine were obtained by adding 0.5 log unit increments (1 nM to 3 μM). Following several washes with KHB, each vessel was contracted to equilibrium with 0.3 μM phenylephrine and tone was reversed by adding cumulative amounts of carbachol at 0.5 log unit intervals (10 nM to 30 μM). Following several KHB washes, the tissues were again contracted to equilibrium with 0.3 μM phenylephrine and tone was reversed by adding cumulative amounts of SNP at 0.5 log unit intervals (0.1 nM to 3 μM). In separate tissues from both the normal and HSFD SHR-SP control groups, the direct vasodilatory effects of BAY 60-4552 and GSK2181236A were investigated. Contractile tone induced by 0.3 μM phenylephrine was reversed by adding cumulative concentrations of BAY 60-4552 or GSK2181236A to the tissue baths at log increments (0.1 nM to 10 μM).

Compound: O=C(O)CCCCN(CCc1ccccc1OCc1ccc(CCc2ccccc2)cc1)Cc1ccc(C(=O)O)cc1 [BAY 58-2667]
infarct size (rat hearts): decreased infarct size
cardiac function (dogs): improved cardiac function
infarct size (rabbit hearts): decreased infarct size

EC50 (SHR-SP isolated aorta; aorta from HSFD SHR-SP, read-out: Carbachol EC50 (vasodilation)): 260 ± 74 nM
EC50 (SHR-SP isolated aorta; aorta from ND SHR-SP, read-out: Carbachol EC50 (vasodilation)): 119 ± 15 nM
Compound: C[N+](C)(C)CCOC(N)=O [Carbachol, carbachol]
Carbachol Emax (SHR-SP isolated aorta; aorta from HSFD SHR-SP): 47 ± 11 % reversal of PE tone
Carbachol Emax (SHR-SP isolated aorta; aorta from ND SHR-SP): 85 ± 3 % reversal of PE tone

EC50 (SHR-SP isolated aorta; aorta from HSFD SHR-SP, read-out: Phenylephrine EC50 (contraction)): 72 ± 11 nM
EC50 (SHR-SP isolated aorta; aorta from ND SHR-SP, read-out: Phenylephrine EC50 (contraction)): 67 ± 6 nM
Compound: CNC[C@H](O)c1cccc(O)c1 [Phenylephrine, phenylephrine]
Phenylephrine Emax (SHR-SP isolated aorta; aorta from HSFD SHR-SP): 83 ± 10 % KCl
Phenylephrine Emax (SHR-SP isolated aorta; aorta from ND SHR-SP): 90 ± 4 % KCl
